Experimental findings from patent US20070170056A1, “Microscale electrochemical cell and methods incorporating the cell” (priority 2006, published 2007) are described below.

The format of this data set is physicochemical. Particulars: vs Pt reference electrode; mobile phase 50 mM LiClO4 in 50:50 water/ACN; porous graphitic working electrode. On the procedure: A standard phenol mixture (100 μM) was dissolved in (50:50) water/ACN to form a sample solution. Mobile phase A consisted of 50 mM LiClO4 in water, while mobile phase B consisted of 50 mM LiClO4 in ACN; a 50:50 mix was used. The sample solution was introduced into an Eksigent ExpressLC system through a micro-injector (40 nL) and separated on an HPLC column (Eksigent Technologies, 300 μm i.d., 15 cm; 3 μm C18 particles). The eluent from the column was run sequentially through a low-dispersion UV detector (Eksigent Technologies) and then through an electrochemical detection system according to an embodiment of the present invention.
The electrochemical detection system had two independent cells in series, connected by a fused silica capillary.
Compound `Cc1cc(O)ccc1Cl` [4-chloro-3-methylphenol] registered an E1/2 of 314 mV. Then `Oc1ccccc1` [phenol], with 336 mV; and `Cc1ccc(O)c(C)c1` [2,4-dimethylphenol], with 304 mV.

Regarding `Oc1ccc(Cl)cc1Cl` [2,4-dichlorophenol], the E1/2 came out at 305 mV. Then `Oc1ccccc1Cl` [2-chlorophenol], with 139 mV.
